Legend:
rats = details: oral administration to rats, cited from earlier work
Sarcoma 180 cancer cells = assay: Determination of Cancer Growth Inhibitory Effect (Sarcoma 180 solid cancer in ICR mice); assay type: in vivo; details: Sarcoma 180 subcutaneous graft, 30 mg/kg per day intraperitoneally for 10 days, tumor weight after 5 weeks
Procedure: (§1) First, 1 wt % aqueous solutions of the respective polysaccharides obtained in the above Preparation Examples were prepared. A cationic ion exchange resin was added to each solution to convert the counter ions of carboxyl group of glucuronic acid residue in the polysaccharide into hydrogen ions, and then the solution was neutralized with sodium hydroxide to replace the counter ions with sodium ions, then passed through a 0.2 μm-opening membrane filter and freeze-dried. The resulting polysaccharide preparations were subjected to the following tests.

C3H/He mice = assay: Observation for anaphylaxis-like reaction and sudden death in MDP-primed mice; assay type: in vivo; details: 100 μg/0.2 ml intravenously, 4 hours after MDP
Procedure: as §1
(§2) These mice were left under observation for anaphylaxis-like reaction and sudden death. After 90 minutes from the injection, blood was collected from the surviving mice to determine TNF and IL-6 activities in the serum. TNF activity was calculated on the basis of the ratio of activity of the actinomycin D-treated L-929 cells to that of rHuTNF (human recombination TNF) used as control, with the killing action of the said L-929 cells being taken as index, and indicated by ng/ml. In the case of IL-6 activity, the IL-6 dependent MH60.BSF2 cell growth stimulating action was taken as index, and the IL-6 activity was calculated on the basis of the calibration curves obtained from the test of IL-6 and control rHuIL-6, and indicated by U/ml.

[1] = test system: myeloma cell strain NS-1/Z; assay: Determination of Cytotoxic T Cell (CTL) Inducibility; assay type: in vivo, BALB/c mouse (target cells); C3H mice (effector cells); details: 20 mg/kg/day, subcutaneous, four times, relative to physiological saline control
Procedure: as §1
The following test was conducted on the C3H mice and BALB/c mice which are different in H-2 haplotype.
The spleen lymphocytes (2×10^7) of the BALB/c mice were immunized in the abdominal cavities of the C3H mice (4 mice per group: N=4). Each of the test specimens shown in Table 5 was given subcutaneously to the back of each of the said C3H mice at a dose of 50 mg/kg or 20 mg/kg, once a day, four times in all, from the day before immunization till 2 days after immunization. As control, physiological saline was used instead of the test specimens. After 9 days, the spleen lymphocyte suspension was collected from the C3H mice. This lymphocyte suspension contained the cytotoxic T cells (hereinafter referred to as effector cells and abbreviated as E). Then, 10^4 cells of myeloma cell strain NS-1/Z (hereinafter abbreviated as T) derived from the BALB/c mouse into which β-galactosidase (β-gal) of Escherichia coli had been introduced, were mixed as target cells with the effector cells so that the E/T ratio would become 30, 60 or 120, and the mixture was kept in 0.2 ml of a medium RPMI-1640 at 37° C. for 4 hours. The activity of β-gal released into the supernatant by destruction of the target cells was measured, and the cytotoxicity by CTL was calculated from the following equation. [formula] A: released β-gal activity B: naturally released β-gal activity (enzyme release observed when no effector cells are present)
C: overall β-gal activity (T used is dissolved in 0.0425% Triton-X100 and the overall enzyme activity is measured.) [formula]

TNF = assay: Measurement of Tumor Necrosis Factor (TNF) inducibility; assay type: in vivo; details: serum 90 minutes after injection, 100 μg/0.2 ml intravenously, MDP-primed C3H/He mice; average value ± standard deviation
Procedure: as §1, §2

IL-6 = assay: Measurement of Interleukin (IL-6) inducibility; assay type: in vivo; details: serum 90 minutes after injection, 100 μg/0.2 ml intravenously, MDP-primed C3H/He mice; average value ± standard deviation
Procedure: as §1, §2

Molecule: O=P1(N(CCCl)CCCl)NCCCO1 (stereo not shown) [Cyclophosphide]
- LD50 (female) (rats; female): 118 mg/kg
- LD50 (male) (rats; male): 100 mg/kg

Molecule: Lentinan
- Cancer cell growth inhibition percentage (Sarcoma 180 cancer cells): 100%

Molecule: Schizophyllan
- Anaphylaxis-like reaction (C3H/He mice): 0/3
- Sudden death (C3H/He mice): 0/3
- Immunoactivating activity, E/T = 30 ([1]; E/T = 30): 5.5
- Immunoactivating activity, E/T = 60 ([1]; E/T = 60): 2.0
- Immunoactivating activity, E/T = 120 ([1]; E/T = 120): 1.7
- TNF (TNF): 0 ± 0 ng/mL
- IL-6 (IL-6): 14.1 ± 2.2 U/ml

From patent US5760213A, “Immunoactivating agent” (Tayca Corporation, priority 1995, dated 1998)
